We go through two compounds from US6713468B2, “Methods of using thiazolobenzoheterocycles” (Aventis Pharma S.A., priority 1997, dated 2004).

For `N=c1sc2cc(OC(F)(F)F)cc3c2n1CC(=O)N3` [Example 37, 2-imino-8-trifluoromethoxy-2H,4H-thiazolo[3,4,5-de]quinoxalin-5(6H)-one], the melting point came out at 255 °C.

`N=c1sc2cc(OC(F)(F)F)cc3c2n1CCC3=O` [Example 8, 2-imino-8-trifluoromethoxy-2H,4H-thiazolo-[5,4,3-ij]quinolin-6-one] displayed a melting point of 192 °C.

By melting point is commonly meant the temperature of the solid-liquid transition.
